According to patent US7915448B2, “Substituted sulfonylaminoarylmethyl cyclopropanecarboxamide as VR1 receptor antagonists” (Pfizer Inc., priority 2005, dated 2011):
pIC50: −log10 of the molar value.

What was measured:
[1] = target: T1, human VR1 receptors (Homo sapiens, UniProt Q8NER1); assay: Human VR1 antagonist assay (Ca2+ imaging); format: cell-based; details: cells expressing human VR1, fura-2 Ca2+ imaging, FDSS 6000; capsaicin (300 nM) or acid (pH5.8) stimulation, table does not say which
T1 construct: host or cells: cells highly expressing human VR1; cell type not specified
Source text: Human VR1 Antagonist Assay
VR1 antagonistic activity can be determined by the Ca^2+ imaging assay using human VR1 highly expressing cells. The cells that highly express human VR1 receptors are obtainable from several different conventional methods. The one standard method is cloning from human Dorsal Root Ganglion (DRG) or kidney according to the methods such as described in the journal article; Nature, 389, pp 816-824, 1997. Alternatively VR1 receptors highly expressing human keratinocytes are also known and published in the journal article (Biochemical and Biophysical Research Communications, 291, pp 124-129, 2002). […] Further more, the method to up regulate human VR1 gene, which is usually a silent gene or don't produce detectable level of VR1 receptors, is also available to obtain propriety cells. Such genetic modification method was described in detail; Nat. Biotechnol., 19, pp 440-445, 2001.
The cells that express human VR1 receptors were maintained in culture flask at 37° C. in an environment containing 5% CO2 until use in the assay. The intracellular Ca^2+ imaging assay to determine VR1 antagonistic activities were done by following procedures.
The culture medium was removed from the flask and fura-2/AM fluorescent calcium indicator was added to the flask at a concentration of 5 μM in the medium. The flask was placed in CO2 incubator and incubated for 1 hour. Then the cells expressing the human VR1 receptors were detached from the flask follow by washing with phosphate buffer saline, PBS(−) and re-suspended in assay buffer. The 80 μl of aliquot of cell suspension (3.75×10^5 cells/ml) was added to the assay plate and the cells were spun down by centrifuge (950 rpm, 20° C., 3 minutes).
Capsaicin Stimulation Assay:
The capsaicin-induced changes in the intracellular calcium concentration were monitored using FDSS 6000 (Hamamatsu Photonics, Japan), a fluorometric imaging system. The cell suspension in Krebs-Ringer HEPES (KRH) buffer (115 mM NaCl, 5.4 mM KCl, 1 mM MgSO4, 1.8 mM CaCl2, 11 mM D-Glucose, 25 mM HEPES, 0.96 mM Na2HPO4, pH 7.3) were pre-incubated with varying concentrations of the test compounds or KRH buffer (buffer control) for 15 minutes at room temperature under the dark condition. Then capsaicin solution, which gives 300 nM in assay mixture, was automatically added to the assay plate by the FDSS 6000.
The Acid-induced changes in the intracellular calcium concentration were monitored using FDSS 6000 (Hamamatsu Photonics, Japan), a fluorometric imaging system. The cell suspension in resting buffer (HBSS supplemented with 10 mM HEPES, pH 7.4) were pre-incubated with varying concentrations of the test compounds or resting buffer (buffer control) for 15 minutes at room temperature under the dark condition. The cells were automatically added the stimulating solution (HBSS supplemented with MES, final assay buffer pH5.8) by the FDSS 6000.
Determination of Antagonist Activity
The monitoring of the changes in the fluorescence signals (λex=340 nm/380 nm, λem=510-520 nm) was initiated at 1 minute prior to the addition of capsaicin solution or acidic buffer and continued for 5 minute.

[2] = Half-life in Human Liver Microsomes (HLM); details: human, human liver microsomes (HL101), pH 7.4
Procedure: Test compounds (1 μM) were incubated with 3.3 mM MgCl2 and 0.78 mg/mL HLM (HL101) in 100 mM potassium phosphate buffer (pH 7.4) at 37° C. on the 96-deep well plate. The reaction mixture was split into two groups, a non-P450 and a P450 group. NADPH was only added to the reaction mixture of the P450 group. An aliquot of samples of P450 group was collected at 0, 10, 30, and 60 min time point, where 0 min time point indicated the time when NADPH was added into the reaction mixture of P450 group. An aliquot of samples of non-P450 group was collected at −10 and 65 min time point. Collected aliquots were extracted with acetonitrile solution containing an internal standard. The precipitated protein was spun down in centrifuge (2000 rpm, 15 min). The compound concentration in supernatant was measured by LC/MS/MS system.
The half-life value was obtained by plotting the natural logarithm of the peak area ratio of compounds/internal standard versus time. The slope of the line of best fit through the points yields the rate of metabolism (k).

T1 sequence (Q8NER1 whole entry): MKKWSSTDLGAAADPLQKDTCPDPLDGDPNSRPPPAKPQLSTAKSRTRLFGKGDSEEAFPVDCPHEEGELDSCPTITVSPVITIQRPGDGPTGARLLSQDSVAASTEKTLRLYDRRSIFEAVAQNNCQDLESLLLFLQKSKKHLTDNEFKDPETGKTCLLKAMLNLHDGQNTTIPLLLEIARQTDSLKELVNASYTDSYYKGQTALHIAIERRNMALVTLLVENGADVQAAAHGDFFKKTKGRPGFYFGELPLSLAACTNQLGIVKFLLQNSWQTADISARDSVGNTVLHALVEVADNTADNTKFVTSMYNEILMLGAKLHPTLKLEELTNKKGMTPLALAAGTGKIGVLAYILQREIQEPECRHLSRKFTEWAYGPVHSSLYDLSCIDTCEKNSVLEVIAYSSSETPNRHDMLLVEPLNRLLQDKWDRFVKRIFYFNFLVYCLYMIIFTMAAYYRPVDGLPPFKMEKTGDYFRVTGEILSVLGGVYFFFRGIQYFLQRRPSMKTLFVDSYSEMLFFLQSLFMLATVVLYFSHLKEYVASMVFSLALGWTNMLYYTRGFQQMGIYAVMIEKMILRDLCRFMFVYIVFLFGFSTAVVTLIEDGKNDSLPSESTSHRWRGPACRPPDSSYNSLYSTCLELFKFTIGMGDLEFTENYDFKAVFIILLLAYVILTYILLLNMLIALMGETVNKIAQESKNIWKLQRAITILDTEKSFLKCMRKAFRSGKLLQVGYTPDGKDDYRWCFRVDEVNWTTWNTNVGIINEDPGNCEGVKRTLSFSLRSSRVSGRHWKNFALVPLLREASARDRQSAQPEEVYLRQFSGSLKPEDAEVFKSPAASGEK

| SMILES | pIC50 [1] | half-life at 1 μM [2] [min] |
| --- | --- | --- |
| C[C@@H](NC(=O)C1CC1(C)c1ccc(C(C)(C)C(F)(F)F)cc1)c1ccc(NS(C)(=O)=O)c(F)c1 (single isomer, unassigned) [Example 77] | 7.30 | 50 |
| Cc1cc([C@H](C)NC(=O)[C@H]2C[C@]2(C)c2ccc(C(F)(F)F)cc2)ccc1NS(C)(=O)=O (single isomer, unassigned) [Example 82] | 7.21 | 26 |
| CC(C)(C)c1ccc(C2CC2C(=O)NCc2ccc(NS(C)(=O)=O)c(F)c2)cc1 (stereo not drawn) [Example 1, 2-(4-tert-Butylphenyl)-N-{3-fluoro-4-[(methylsulfonyl)amino]benzyl}cyclopropanecarboxamide] | 6.48 | 13 |
| Cc1cc([C@@H](C)NC(=O)C2CC2c2ccc(C(C)(C)C)c(F)c2)ccc1NS(C)(=O)=O (stereo partly drawn) [Example 2, 2-(4-tert-Butyl-3-fluorophenyl)-N-((1R)-1-{3-methyl-4-[(methylsulfonyl)amino]phenyl}ethyl)cyclopropanecarboxamide] | 7.95 | 32 |
| Cc1cc(CNC(=O)C2CC2c2ccc(C(C)(C)C)c(F)c2)ccc1NS(C)(=O)=O (stereo not drawn) [Example 4, 2-(4-tert-Butyl-3-fluorophenyl)-N-{3-methyl-4-[(methylsulfonyl)amino]benzyl}cyclopropanecarboxamide] | 6.72 | 9 |
| Cc1cc(CNC(=O)C2CC2(C)c2ccc(C(C)(C)C)cc2)ccc1NS(C)(=O)=O (stereo not drawn) [Example 5, 2-(4-tert-Butylphenyl)-2-methyl-N-{3-methyl-4-[(methylsulfonyl)amino]benzyl}cyclopropanecarboxamide] | 7.40 | 5 |
| Cc1cc(CNC(=O)C2CC2c2ccc(C(C)(C)C(F)(F)F)cc2)ccc1NS(C)(=O)=O (stereo not drawn) [Example 6, N-{3-Methyl-4-[(methylsulfonyl)amino]benzyl}-2-[4-(2,2,2-trifluoro-1,1-dimethylethyl)phenyl]cyclopropanecarboxamide] | 7.74 | 18 |
| C[C@@H](NC(=O)C1CC1c1ccc(C(C)(C)C)cc1)c1ccc(NS(C)(=O)=O)c(F)c1 (stereo partly drawn) [Example 8, 2-(4-tert-Butylphenyl)-N-((1R)-1-{3-fluoro-4-[(methylsulfonyl)amino]phenyl}ethyl)cyclopropanecarboxamide] | 7.42 | 37 |
| Cc1nc([C@@H](C)NC(=O)C2CC2(C)c2ccc(C(C)(C)C(F)(F)F)cc2)ccc1NS(C)(=O)=O (stereo partly drawn) [Example 9, 2-Methyl-N-((1R)-1-{6-methyl-5-[(methylsulfonyl)amino]pyridin-2-yl}ethyl)-2-[4-(2,2,2-trifluoro-1,1-dimethylethyl)phenyl]cyclopropanecarboxamide] | 6.77 | 42 |
| Cc1cc([C@@H](C)NC(=O)C2CC2(C)c2ccc(C(C)(C)C)nc2)ccc1NS(C)(=O)=O (stereo partly drawn) [Example 10, 2-(6-tert-Butylpyridin-3-yl)-2-methyl-N-((1R)-1-{3-methyl-4-[(methylsulfonyl)amino]phenyl}ethyl)cyclopropanecarboxamide] | 8.44 | 22 |
| Cc1cc([C@@H](C)NC(=O)C2CC2(C)c2ccc(C(F)(F)F)nc2)ccc1NS(C)(=O)=O (stereo partly drawn) [Example 12, 2-Methyl-N-((1R)-1-{3-methyl-4-[(methylsulfonyl)amino]phenyl}ethyl)-2-[6-(trifluoromethyl)pyridin-3-yl]cyclopropanecarboxamide] | 7.57 | 83 |
| Cc1nc([C@@H](C)NC(=O)[C@H]2C[C@]2(C)c2ccc(C(F)(F)F)cc2)ccc1NS(C)(=O)=O [Example 14, (1S,2S)-2-Methyl-N-((1R)-1-{6-methyl-5-[(methylsulfonyl)amino]pyridin-2-yl}ethyl)-2-[4-(trifluoromethyl)phenyl]cyclopropanecarboxamide] | 6.69 | > 120 |
| Cc1cc([C@@H](C)NC(=O)[C@H]2C[C@]2(C)c2ccc(C(F)(F)F)cc2)ccc1NS(C)(=O)=O [Example 15, (1S,2S)-2-Methyl-N-((1R)-1-{3-methyl-4-[(methylsulfonyl)amino]phenyl}ethyl)-2-[4-(trifluoromethyl)phenyl]cyclopropanecarboxamide] | 9.15 | 38 |
| Cc1cc([C@@H](C)NC(=O)C2CC2(C)c2ccc(OC(F)(F)F)cc2)ccc1NS(C)(=O)=O (stereo partly drawn) [Example 16, 2-Methyl-N-((1R)-1-{3-methyl-4-[(methylsulfonyl)amino]phenyl}ethyl)-2-[4-(trifluoromethoxy)phenyl]cyclopropanecarboxamide] | 8.18 | 53 |
| C[C@@H](NC(=O)C1CC1c1ccc(C(C)(C)C(F)(F)F)cc1)c1ccc(NS(C)(=O)=O)c(F)c1 (stereo partly drawn) [Example 18, N-((1R)-1-{3-Fluoro-4-[(methylsulfonyl)amino]phenyl}ethyl)-2-[4-(2,2,2-trifluoro-1,1-dimethylethyl)phenyl]cyclopropanecarboxamide] | 6.55 | 119 |
| Cc1cc([C@@H](C)NC(=O)C2CC2c2ccc(C(F)(F)F)cc2)ccc1NS(C)(=O)=O (stereo partly drawn) [Example 19a, N-((1R)-1-{3-Methyl-4-[(methylsulfonyl)amino]phenyl}ethyl)-2-[4-(trifluoromethyl)phenyl]cyclopropanecarboxamide] | 7.64 | > 120 |
| C[C@@H](NC(=O)C1CC1c1ccc(C(F)(F)F)cc1)c1ccc(NS(C)(=O)=O)c(CO)c1 (stereo partly drawn) [Example 20, N-((1R)-1-{3-(Hydroxymethyl)-4-[(methylsulfonyl)amino]phenyl}ethyl)-2-[4-(trifluoromethyl)phenyl]cyclopropanecarboxamide] | 7.33 | > 120 |
| C[C@@H](NC(=O)[C@H]1C[C@]1(C)c1ccc(C(F)(F)F)cc1)c1ccc(NS(C)(=O)=O)cc1 [Example 21, (1S,2S)-2-Methyl-N-((1R)-1-{4-[(methylsulfonyl)amino]phenyl}ethyl)-2-[4-(trifluoromethyl)phenyl]cyclopropanecarboxamide] | 7.70 | > 120 |
| C[C@@H](NC(=O)[C@H]1C[C@]1(C)c1ccc(C(F)(F)F)cc1)c1ccc(NS(C)(=O)=O)c(CO)c1 [Example 22, (1S,2S)-N-((1R)-1-{3-(Hydroxymethyl)-4-[(methylsulfonyl)amino]phenyl}ethyl)-2-methyl-2-[4 (trifluoromethyl)phenyl]cyclopropanecarboxamide] | 8.92 | 37 |
| C[C@@H](NC(=O)[C@H]1C[C@]1(C)c1ccc(C(F)(F)F)cc1)c1ccc(NS(C)(=O)=O)c(F)c1 [Example 23, (1S,2S)-N-((1R)-1-{3-Fluoro-4-[(methylsulfonyl)amino]phenyl}ethyl)-2-methyl-2-[4-(trifluoromethyl)phenyl]cyclopropanecarboxamide] | 7.96 | > 120 |
| Cc1cc([C@@H](C)NC(=O)C2CC2(C)c2ccc(SC(F)(F)F)cc2)ccc1NS(C)(=O)=O (stereo partly drawn) [Example 24, 2-Methyl-N-((1R)-1-{3-methyl-4-[(methylsulfonyl)amino]phenyl}ethyl)-2-{4-[(trifluoromethyl)thio]phenyl}cyclopropanecarboxamide] | 7.71 | 23 |
| C[C@@H](NC(=O)C1CC1(C)c1ccc(SC(F)(F)F)cc1)c1ccc(NS(C)(=O)=O)c(CO)c1 (stereo partly drawn) [Example 25] | 7.58 | 30 |
| Cc1cc([C@@H](C)NC(=O)C2CC2(C)c2ccc(S(=O)(=O)C(F)(F)F)cc2)ccc1NS(C)(=O)=O (stereo partly drawn) [Example 26, 2-Methyl-N-((1R)-1-{3-methyl-4-[(methylsulfonyl)amino]phenyl}ethyl)-2-{4-[(trifluoromethyl)sulfonyl]phenyl}cyclopropanecarboxamide] | 7.11 | 38 |
| Cc1cc([C@@H](C)NC(=O)C2CC2(C)c2ccc(C(C)(C)C(F)(F)F)cc2)ccc1NS(C)(=O)=O (stereo partly drawn) [Example 27] | 8.11 | 25 |
